The text below walks through data of US20190175560A1, “MEBENDAZOLE CANCER THERAPIES AND METHODS OF USE” (Shepherd Therapeutics, Inc., priority 2017, published 2019).

Common to all, as to test: Synergy of MBZ with chemotherapeutic agents (Chou-Talalay CI, Cell Titer Glo)
Type in all cases: cell-based
Holding throughout (conditions): in combination with MBZ, 72 hour incubation
A general note: Cellular ATP, detected with luciferase, serves as a proxy for viable cell number.

For assay [1], the system named is CCC-5 cholangiocarcinoma cells.
Protocol: (§1) For in vitro experiments, cells were plated in triplicate and treated with a range of concentrations of MBZ and relevant chemotherapeutic agents in a complete Latin square.
(§2) Cells were plated in triplicate and treated with a range of 5 concentrations of MBZ in combination with 5 concentrations of chemotherapeutic agents in a complete Latin square. Following a 72 hour incubation, cell viability was determined using Cell Titer Glo.
For assay [2], the system named is TFK-1 cholangiocarcinoma cells.
Protocol: (§3) For in vitro experiments, cells were plated in triplicate and treated with a range of concentrations of MBZ and relevant chemotherapeutic agents in a complete Latin square. Combination indexes (CI) were determined based on the method described by Chou and Talalay (Cancer Res. 2010 Jan. 15; 70(2):440-6. doi: 10.1158/0008-5472.CAN-09-1947. Epub 2010 Jan. 12).
(§4) Cells were plated in triplicate and treated with a range of 5 concentrations of MBZ in combination with 5 concentrations of chemotherapeutic agents in a complete Latin square. Following a 72 hour incubation, cell viability was determined using Cell Titer Glo. The Combination index (CI) was determined based on the method described by Chou and Talalay (2010) with a CI value less than 0.9 indicating synergy.
Assay [3] concerns SK-LMS-1 leiomyosarcoma cells.
Protocol: as §4
Assay [4] relates to SK-UT-1 leiomyosarcoma cells.
Protocol: as §4
For assay [5], the system named is SK-UT-1B leiomyosarcoma cells.
Protocol: as §3, §4
Assay [6] concerns HepG2 hepatocellular carcinoma cells.
Protocol: as §1, §2
In assay [7] the test system is HepG2-C3A hepatocellular carcinoma cells.
Protocol: as §1, §4
For another assay, the system named is JU77 mesothelioma cells.
A further assay has as its system LO68 mesothelioma cells.
The test system of assay [8] is MSTO-211H mesothelioma cells.
Protocol: as §1, §4
Assay [9] concerns BxPC-3 pancreatic carcinoma cells.
Protocol: as §1, §2
The test system of assay [10] is Hs766t pancreatic carcinoma cells.
Protocol: as §4

Molecules are shown by their SMILES.

Protocol for JU77 mesothelioma cells: as §1, §4
Protocol for LO68 mesothelioma cells: as §1, §4

Consider `Nc1ccn([C@@H]2O[C@H](CO)[C@@H](O)C2(F)F)c(=O)n1` [Gemcitabine], for which the “CI range for the concentration pairings” value is reported as 0.394-0.855 in assay [1]; 0.418-0.861 in assay [3]; 0.385-0.802 in assay [4]; 0.410-0.893 in [5]; 0.012-0.796 in [6]; 0.362-0.712 with JU77 mesothelioma cells. Besides, the “CI range for the concentration pairings” value is on record as 0.525-0.845 with LO68 mesothelioma cells, 0.086-0.796 in [8], 0.502-0.770 in assay [9] and 0.149-0.874 in assay [10]. Moreover, the “synergy with MBZ (Yes/No)” value in [2] and in assay [7] was “No” each time.
